Assay results reported in ChEMBL document CHEMBL1201862, “PubChem BioAssay data set” (2004).
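In this assay, cells in 96-well plates receive the compound at five concentrations for 48 hours. Endpoints are linearly interpolated between the surrounding concentrations. Here, GI50 denotes the concentration required for 50% inhibition of growth.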 Calls of active or inactive are those of the source. Rule as the data show it: active = GI50 up to about 1.1 µM and inactive = higher.

How the values were obtained:
Test in all cases: NCI-60 cell line screen, 48 h
K562 = system: K562
EKVX = system: EKVX
SNB-19 = system: SNB-19
SK-OV-3 = system: SK-OV-3
CAKI-1 = system: CAKI-1
HCT-116 = system: HCT-116
OVCAR-3 = system: OVCAR-3
MCF7 = system: MCF7
MOLT-4 = system: MOLT-4
SK-MEL-2 = system: SK-MEL-2
HL-60 = system: HL-60
Hs-578T = system: Hs-578T
HOP-92 = system: HOP-92
OVCAR-5 = system: OVCAR-5
SF-268 = system: SF-268
SNB-75 = system: SNB-75
KM12 = system: KM12
SF-295 = system: SF-295
M14 = system: M14
PC-3 = system: PC-3

Row | Compound | GI50 (K562) | GI50 (EKVX) | GI50 (SNB-19) | GI50 (SK-OV-3) | GI50 (CAKI-1) | GI50 (HCT-116) | GI50 (OVCAR-3) | GI50 (MCF7) | GI50 (MOLT-4) | GI50 (SK-MEL-2) | GI50 (HL-60) | GI50 (Hs-578T) | GI50 (HOP-92) | GI50 (OVCAR-5) | GI50 (SF-268) | GI50 (SNB-75) | GI50 (KM12) | GI50 (SF-295) | GI50 (M14) | GI50 (PC-3)
1 | COc1cccc2c1C(=O)C=CC2=O | 1.32 µM (inactive) | 18.5 µM (inactive) | 15.5 µM (inactive) | 21.8 µM (inactive) | 7.66 µM (inactive) | 3.44 µM (inactive) | 1.85 µM (inactive) | 1.93 µM (inactive) | 0.526 µM (active) | 10.1 µM (inactive) | 0.32 µM (active) | 15.4 µM (inactive) | 1.99 µM (inactive) | 18.9 µM (inactive) | 6.73 µM (inactive) | 14.8 µM (inactive) | 9.82 µM (inactive) | 15.6 µM (inactive) | 8.49 µM (inactive) | 
2 | O=C(Nc1ccc(Cl)cc1)c1cc2c(cc1Cl)Sc1nccn1S2(=O)=O | 14.1 µM (inactive) | 69 µM (inactive) | 44.4 µM (inactive) | 64 µM (inactive) | 40.7 µM (inactive) | 34.6 µM (inactive) | 46.5 µM (inactive) | 69.3 µM (inactive) | 27.9 µM (inactive) | > 100 µM (inactive) |  | 33.8 µM (inactive) |  | > 100 µM (inactive) | 27.5 µM (inactive) | 3.4 µM (inactive) | > 100 µM (inactive) | 29.2 µM (inactive) | > 100 µM (inactive) | 85.3 µM (inactive)
3 | N#C/C(C(=S)Nc1ccccc1)=C(/N)N1CCCC1 | > 100 µM (inactive) | > 100 µM (inactive) | > 100 µM (inactive) |  | 27.9 µM (inactive) | > 100 µM (inactive) | > 100 µM (inactive) | > 100 µM (inactive) | > 100 µM (inactive) | > 100 µM (inactive) | > 100 µM (inactive) | > 100 µM (inactive) | 62.5 µM (inactive) | > 100 µM (inactive) | > 100 µM (inactive) |  | > 100 µM (inactive) | > 100 µM (inactive) | > 100 µM (inactive) | > 100 µM (inactive)
4 | c1ccc2c(c1)Nc1c3ccccc3nc3cccc-2c13 | 0.386 µM (active) | 1.55 µM (inactive) | 1.82 µM (inactive) | 1.35 µM (inactive) | 1.08 µM (active) | 0.499 µM (active) | 1.46 µM (inactive) | 1.24 µM (inactive) | 0.157 µM (active) | 1.6 µM (inactive) | 1.58 µM (inactive) | 1.73 µM (inactive) |  | 1.43 µM (inactive) | 1.49 µM (inactive) | 1.65 µM (inactive) | 1.12 µM (active) | 1.17 µM (inactive) | 1.76 µM (inactive) | 0.968 µM (active)
5 | CCc1n[nH]c(=O)n1N1C(=O)CCC1=O | > 100 µM (inactive) | > 100 µM (inactive) | > 100 µM (inactive) | > 100 µM (inactive) | > 100 µM (inactive) | > 100 µM (inactive) | > 100 µM (inactive) | > 100 µM (inactive) | > 100 µM (inactive) | > 100 µM (inactive) |  | > 100 µM (inactive) |  | > 100 µM (inactive) | > 100 µM (inactive) | > 100 µM (inactive) | > 100 µM (inactive) | > 100 µM (inactive) | > 100 µM (inactive) | > 100 µM (inactive)
6 | Cc1ccc2c(=O)c(-c3nnc(NC4CCCCC4)s3)c[nH]c2n1 | > 100 µM (inactive) | > 100 µM (inactive) | > 100 µM (inactive) |  | > 100 µM (inactive) | > 100 µM (inactive) | > 100 µM (inactive) | > 100 µM (inactive) | 61 µM (inactive) | > 100 µM (inactive) | > 100 µM (inactive) | > 100 µM (inactive) |  | > 100 µM (inactive) | > 100 µM (inactive) |  | > 100 µM (inactive) | 81.7 µM (inactive) | > 100 µM (inactive) | > 100 µM (inactive)
7 | O=c1[nH]nc(Cc2ccc([N+](=O)[O-])cc2)n1CCO | > 100 µM (inactive) | > 100 µM (inactive) | > 100 µM (inactive) | > 100 µM (inactive) | > 100 µM (inactive) | > 100 µM (inactive) | > 100 µM (inactive) | > 100 µM (inactive) |  | > 100 µM (inactive) | > 100 µM (inactive) | > 100 µM (inactive) | > 100 µM (inactive) | > 100 µM (inactive) | > 100 µM (inactive) |  | > 100 µM (inactive) | > 100 µM (inactive) | > 100 µM (inactive) | > 100 µM (inactive)
8 | CCCCCCCC(=O)NC(C)(C)C(=O)NCC(=O)NC(CC(C)C)C(=O)NC(C)(C)C(=O)NCC(=O)NCC(=O)NC(CC(C)C)C(=O)NC(C)(C)C(=O)NCC(=O)NC(C(=O)NC(CO)CC(C)C)C(C)CC (centres undefined) | 3.21 µM (inactive) | 3.63 µM (inactive) | 3.57 µM (inactive) | 4.2 µM (inactive) | 4.12 µM (inactive) | 3.78 µM (inactive) | 3.11 µM (inactive) |  | 3.73 µM (inactive) | 2.82 µM (inactive) |  | 4.42 µM (inactive) | 3.15 µM (inactive) | 3.66 µM (inactive) | 4.11 µM (inactive) | 3.64 µM (inactive) | 1.41 µM (inactive) | 4.26 µM (inactive) | 4.21 µM (inactive) | 3.77 µM (inactive)
9 | COCC1OC([P+](c2ccccc2)(c2ccccc2)c2ccccc2)CC(OC)C1OC (centres undefined) | 34.2 µM (inactive) | 42.6 µM (inactive) | 34.7 µM (inactive) | 32.6 µM (inactive) | > 100 µM (inactive) | 32.6 µM (inactive) | 22.7 µM (inactive) | 38 µM (inactive) | 58.1 µM (inactive) | 24.1 µM (inactive) |  | 28.2 µM (inactive) |  | 51.5 µM (inactive) |  |  | 34.5 µM (inactive) | 34.2 µM (inactive) | 40.8 µM (inactive) | 30.5 µM (inactive)
10 | O=c1[nH]c2[nH]c(-c3ccc(Br)cc3)cc2c2ccccc12 | 27.1 µM (inactive) | 5.58 µM (inactive) | 29.4 µM (inactive) |  | 61.1 µM (inactive) | 43.2 µM (inactive) | > 100 µM (inactive) | > 100 µM (inactive) | 12 µM (inactive) | > 100 µM (inactive) | 13.5 µM (inactive) | 15.1 µM (inactive) |  | > 100 µM (inactive) | 86.9 µM (inactive) | 19.4 µM (inactive) | > 100 µM (inactive) | 70 µM (inactive) |  | > 100 µM (inactive)
11 | COC(=O)C1(C(=O)OC)CC2=C(S(=O)(=O)c3ccccc3)C[C@H](S(=O)(=O)c3ccccc3)[C@H]2C1 | 23.7 µM (inactive) | > 100 µM (inactive) | 71.6 µM (inactive) | > 100 µM (inactive) | > 100 µM (inactive) | 70.5 µM (inactive) | 29 µM (inactive) |  | 46.7 µM (inactive) | 27.2 µM (inactive) |  | > 100 µM (inactive) | 19.6 µM (inactive) | > 100 µM (inactive) | > 100 µM (inactive) | 37.8 µM (inactive) | 91.8 µM (inactive) | > 100 µM (inactive) | > 100 µM (inactive) | 41.9 µM (inactive)
12 | CCOP(=O)(OCC)/C(=C/NC(=S)c1ccncc1)C(=O)OC | > 100 µM (inactive) | > 100 µM (inactive) | > 100 µM (inactive) | > 100 µM (inactive) | > 100 µM (inactive) | > 100 µM (inactive) | > 100 µM (inactive) | > 100 µM (inactive) | > 100 µM (inactive) | > 100 µM (inactive) | 53.5 µM (inactive) | > 100 µM (inactive) | > 100 µM (inactive) | > 100 µM (inactive) | > 100 µM (inactive) |  | > 100 µM (inactive) | > 100 µM (inactive) | > 100 µM (inactive) | > 100 µM (inactive)
13 | CC(=O)N1N(c2ccc([N+](=O)[O-])cc2)C(=O)C1(C)C | 17 µM (inactive) | 17.3 µM (inactive) | 50.4 µM (inactive) | 48 µM (inactive) |  |  | 19.3 µM (inactive) | 23.6 µM (inactive) | 15.5 µM (inactive) | 19.1 µM (inactive) |  | 33.5 µM (inactive) |  | 23.3 µM (inactive) | 29.4 µM (inactive) | 18.7 µM (inactive) | 16.7 µM (inactive) | 31.4 µM (inactive) | 10.8 µM (inactive) | 15.7 µM (inactive)
14 | O=C1CCC2(CCO1)OCCO2 | > 100 µM (inactive) | > 100 µM (inactive) | > 100 µM (inactive) | > 100 µM (inactive) | > 100 µM (inactive) | > 100 µM (inactive) | > 100 µM (inactive) | > 100 µM (inactive) | > 100 µM (inactive) | > 100 µM (inactive) | > 100 µM (inactive) | > 100 µM (inactive) |  | > 100 µM (inactive) | > 100 µM (inactive) | > 100 µM (inactive) | > 100 µM (inactive) | > 100 µM (inactive) | > 100 µM (inactive) | > 100 µM (inactive)
15 | COC(=O)C1(C#N)C(C)(C)N=C(c2ccccc2)C12CCCCC2 (centres undefined) | 59.7 µM (inactive) | > 100 µM (inactive) | > 100 µM (inactive) | > 100 µM (inactive) | > 100 µM (inactive) | > 100 µM (inactive) | > 100 µM (inactive) | > 100 µM (inactive) | 45.9 µM (inactive) | > 100 µM (inactive) | 45.4 µM (inactive) | > 100 µM (inactive) | 53.2 µM (inactive) | > 100 µM (inactive) | > 100 µM (inactive) |  | > 100 µM (inactive) | 56.4 µM (inactive) | > 100 µM (inactive) | 58.7 µM (inactive)
